Conditions: 100 kPa, Liquid, Falling or rolling sphere viscometry

O [water]
Conditions | viscosity [mPa·s]
288.15 K | 1.122
293.15 K | 0.99
298.15 K | 0.882
303.15 K | 0.793
308.15 K | 0.719
313.15 K | 0.656
318.15 K | 0.602

Reference: the NIST ThermoML archive (doi:10.1021/acs.jced.8b01008)
